Viability data for 31 compounds are collected here from ChEMBL document CHEMBL5608113, “Targeting of CAF-induced therapy resistance in CRC organoid-stroma co-cultures” (2024).

Type in all cases: functional, Homo sapiens
Holding throughout (settings): Homo sapiens, read-out: Cell Viability; for viability at 10 µM: Concentration 10 uM; for viability at 1 µM: Concentration 1 uM

In experiment [1] the test system is Colon cancer organoid. The experiment in a line: Targeting of F14 CAF-induced therapy resistance in O14 CRC organoid-stroma co-culture. Cell viability is reported with Gefitinib.
Experiment [2] relates to Colon cancer organoid. The experiment in a line: Targeting of F14 CAF-induced therapy resistance in O14 CRC organoid-stroma co-culture. Cell viability is reported without Gefitinib.
The test system of experiment [3] is Colon cancer organoid. Put plainly: Targeting of F14 CAF-induced therapy resistance in O23 CRC organoid-stroma co-culture. Cell viability is reported without Gefitinib.
Experiment [4] has as its system Colon cancer organoid. The experiment in a line: Targeting of F14 CAF-induced therapy resistance in O23 CRC organoid-stroma co-culture. Cell viability is reported with Gefitinib.
Experiment [5] deals with Colon cancer organoid. The experiment in a line: Targeting of F14 CAF-induced therapy resistance in O23 CRC organoid-stroma co-culture. Cell viability is reported with SN-38.

Structures are written as SMILES.

For `CCOC(=O)c1c(/C(C#N)=C\N)c2ccc(Cl)c(Cl)c2n1C`, the viability (as a rule, a read-out of living cells in per cent, often relative to untreated cells) at 10 µM was 47.7% in the experiment with Colon cancer organoid [1]; 106% with Colon cancer organoid [2]; 99.7% in the experiment on Colon cancer organoid [3]; 52% with Colon cancer organoid [4]; 68.1% in the experiment with Colon cancer organoid [5].
Regarding `COc1ccccc1-c1cc(N2CCN(C(=O)OC(C)(C)C)CC2)c(N)nn1`, the viability at 10 µM was 53.4% in the experiment with Colon cancer organoid [1]; 101% with Colon cancer organoid [2]; 49.4% in the experiment on Colon cancer organoid [3]; 37.8% with Colon cancer organoid [4]; 35.8% in the experiment with Colon cancer organoid [5].
Regarding `Cn1c(C2(NC(=O)c3ccc(NCC4CCCCC4)nc3)CCC2)nc2ccc(/C=C/C(=O)O)cc21` [BI 7656], the viability at 10 µM with Colon cancer organoid [1] is 45.1%; in the experiment on Colon cancer organoid [2], 101%; in the experiment with Colon cancer organoid [3], 131%; with Colon cancer organoid [4], 77.7%; in the experiment on Colon cancer organoid [5], 69.9%.
In the case of `CC(=O)N1CCC(c2ccc(C(=O)NC3=NCCN3)cc2C(F)(F)F)CC1` [BI 0054], the viability at 10 µM was 17.4% in the experiment on Colon cancer organoid [1]; 46.7% in the experiment on Colon cancer organoid [2]; 120% in the experiment on Colon cancer organoid [3]; 54.5% in the experiment with Colon cancer organoid [4]; 74.4% in the experiment on Colon cancer organoid [5].
With `CC(=O)N1CCC(c2ccc(C(=O)NC(=N)N)cc2C(F)(F)F)CC1` [BI 9627], the viability at 10 µM in the experiment with Colon cancer organoid [1] worked out at 42.9%; in the experiment with Colon cancer organoid [2] it was 102%; in the experiment with Colon cancer organoid [3], 109%; with Colon cancer organoid [4] it was 53.2%; with Colon cancer organoid [5], 106%.
With `O=C(Nc1ccc(Oc2ccc(F)cc2)cc1)N1CCc2ncccc2[C@H]1c1ccc(F)cc1` [BAY-897], the viability at 1 µM with Colon cancer organoid [1] is 32.3%; in the experiment on Colon cancer organoid [2], 80%; with Colon cancer organoid [3] it was 111%; in the experiment with Colon cancer organoid [4] it was 47.5%; in the experiment with Colon cancer organoid [5], 61.9%.
As for `CC(C)C(=O)Nc1n[nH]c2cc(-c3cccc(NS(=O)(=O)C4CC4)c3)ccc12`, the viability at 10 µM with Colon cancer organoid [1] is 57.8%; in the experiment with Colon cancer organoid [2] it was 129%; with Colon cancer organoid [3], 115%; with Colon cancer organoid [4] it was 54.8%; in the experiment on Colon cancer organoid [5], 62.1%.
The corresponding values for `Cc1cnc(-c2cc(Cl)ccc2F)cc1-n1c(=O)n(CC(N)=O)c2ccccc21` [Al11] are 31.3%, 104%, 120%, 94.6% and 66.2%.
`CC1(C)C(N)=Nc2cc(OCCCN3Cc4ccc(OCCc5cn(CC(=O)N6CCC(CCN7CCCC7)CC6)nn5)cc4C3)c(OCC3CC3)cc21`: the viability at 10 µM with Colon cancer organoid [1] is 68.9%; with Colon cancer organoid [2] it was 111%; in the experiment with Colon cancer organoid [3], 11.8%; in the experiment with Colon cancer organoid [4], 9.03%; in the experiment on Colon cancer organoid [5], 7.1%.
For the compound `CN1CCN(c2ccc(-c3cccc(CN4CCOCC4)c3)cc2NC(=O)c2c[nH]c(=O)cc2C(F)(F)F)CC1`, the viability at 10 µM was 65.8% in the experiment on Colon cancer organoid [1]; 99.7% in the experiment on Colon cancer organoid [2]; 131% in the experiment on Colon cancer organoid [3]; 62.5% in the experiment with Colon cancer organoid [4]; 102% in the experiment with Colon cancer organoid [5].
Consider `CNC(=O)c1cc(C(=O)N[C@H]2[C@@H]3COC[C@@H]32)cc2c1O[C@H](CF)[C@H]2c1ccccc1` [GSK973], for which the viability at 10 µM with Colon cancer organoid [1] was found to be 23.6%; in the experiment on Colon cancer organoid [2] it was 99.3%; with Colon cancer organoid [3], 102%; with Colon cancer organoid [4] it was 58.5%; in the experiment with Colon cancer organoid [5], 46.5%.
In the case of `O=S(=O)(NC1CCC(c2cc(F)ccc2F)(S(=O)(=O)c2ccc(Cl)cc2)CC1)C(F)(F)F` (stereo not given) [MRK-560], the viability at 1 µM with Colon cancer organoid [1] was found to be 32.8%; in the experiment with Colon cancer organoid [2], 73.7%; in the experiment on Colon cancer organoid [3], 130%; with Colon cancer organoid [4] it was 60.6%; with Colon cancer organoid [5], 64.4%.
On to `CCNC(=O)c1cc2c(N3CCOC[C@@H]3C)ccnc2n1C`, for which the viability at 10 µM was found to be 36.3% with Colon cancer organoid [1]; 70.2% in the experiment on Colon cancer organoid [2]; 104% in the experiment on Colon cancer organoid [3]; 38.3% in the experiment on Colon cancer organoid [4]; 84.1% in the experiment with Colon cancer organoid [5].
`O=C(O)[C@H]1[C@H](Cn2nnc3ccccc3c2=O)CC[C@@H]1C(=O)c1ccc(OCCC2CCOCC2)cc1` [BAY-7598]: the viability at 1 µM turned out to be 48.5% in the experiment on Colon cancer organoid [1]; 122% in the experiment with Colon cancer organoid [2]; 130% in the experiment on Colon cancer organoid [3]; 41.8% in the experiment on Colon cancer organoid [4]; 99.1% with Colon cancer organoid [5].
Turning to `O=C(c1ccc(F)cc1)N1CC(COc2ccc(Br)cc2)(C(=O)O)C1` [PF-04475866], the viability at 1 µM in the experiment on Colon cancer organoid [1] worked out at 36.4%; in the experiment on Colon cancer organoid [2], 159%; in the experiment on Colon cancer organoid [3], 118%; with Colon cancer organoid [4] it was 66.8%; in the experiment with Colon cancer organoid [5], 85.2%.
On to `Cc1cc(C)cc([C@H]2c3cc(C)ccc3NC(=O)CN2C(=O)c2ccc(Br)s2)c1`, for which the viability at 10 µM with Colon cancer organoid [1] turned out to be 63.7%; in the experiment on Colon cancer organoid [2], 96.4%; with Colon cancer organoid [3] it was 84.3%; in the experiment on Colon cancer organoid [4] it was 63.4%; in the experiment with Colon cancer organoid [5] it was 86.1%.
Regarding `CCC(=O)N[C@H]1CC[C@@H](C(=O)N(C)c2ccc(-c3nc4ccccc4o3)cc2)C1` [BI 99179], the viability at 10 µM in the experiment on Colon cancer organoid [1] is 44.8%; in the experiment with Colon cancer organoid [2] it was 48.5%; in the experiment with Colon cancer organoid [3], 168%; with Colon cancer organoid [4], 82%; with Colon cancer organoid [5] it was 124%.
On to `O=C(NC[C@@H]1[C@H]2CN(C(=O)OCc3cc(C(F)(F)F)cc(C(F)(F)F)c3)C[C@@H]12)c1ccc2[nH]nnc2c1` [BI 2545], for which the viability at 10 µM in the experiment on Colon cancer organoid [1] amounted to 43%; in the experiment with Colon cancer organoid [2], 105%; in the experiment with Colon cancer organoid [3], 142%; with Colon cancer organoid [4], 83.8%; with Colon cancer organoid [5], 105%.
For the compound `Cc1nnc2c3ccccc3c(N[C@@H](C)[C@H](c3ccccc3)N(C)C)nn12`, the viability at 10 µM was found to be 53.6% with Colon cancer organoid [1]; 69.8% with Colon cancer organoid [2]; 119% in the experiment on Colon cancer organoid [3]; 55.2% with Colon cancer organoid [4]; 141% in the experiment on Colon cancer organoid [5].
The corresponding values for `COc1cc(OC)cc(-c2noc(N3CCN(C)C4(CCN(c5ccnc(C)c5)CC4)C3)n2)c1` are 49.2%, 103%, 108%, 74.2% and 101%.
With `CN(C)c1ncnc(-c2ccc3nc(Nc4cc(CN5CCN(C(=O)CC(F)(F)F)CC5)ccn4)[nH]c3c2)c1Cl` [BAY-440], the viability at 10 µM in the experiment on Colon cancer organoid [1] came to 68.9%; in the experiment with Colon cancer organoid [2], 114%; in the experiment with Colon cancer organoid [3], 160%; with Colon cancer organoid [4] it was 78.1%; with Colon cancer organoid [5] it was 92.8%.
For the compound `CCN(Cc1ccc(Cl)cc1)c1ncc(C(=O)NCCCN2CCCC2=O)c(NC2CCCC2)n1`, the viability at 10 µM in the experiment on Colon cancer organoid [1] amounted to 46.6%; with Colon cancer organoid [2], 108%; in the experiment with Colon cancer organoid [3] it was 105%; in the experiment with Colon cancer organoid [4], 74.3%; with Colon cancer organoid [5], 61.6%.
For `Cn1cncc1[C@](O)(COc1ccc(C#N)cc1-c1ccc(OC(F)(F)F)cc1)c1ccc(C#N)cc1`, the viability at 10 µM in the experiment with Colon cancer organoid [1] is 18.5%; with Colon cancer organoid [2], 47%; with Colon cancer organoid [3] it was 75.6%; in the experiment with Colon cancer organoid [4], 40.9%; with Colon cancer organoid [5], 76.2%.
Regarding `CCC(=O)N[C@@H]1CC[C@H](C(=O)N(C)c2ccc(-c3nc4ccccc4o3)cc2)C1` [BI 99990], the viability at 10 µM in the experiment on Colon cancer organoid [1] came out at 37.6%; with Colon cancer organoid [2], 150%; with Colon cancer organoid [3], 154%; in the experiment with Colon cancer organoid [4], 69.7%; in the experiment with Colon cancer organoid [5], 100%.
With `CS(=O)(=O)NCC[C@H](NC(=O)c1cncc2c1cnn2-c1ccc(F)cc1)c1ccnc(S(C)(=O)=O)c1` [BI 9307], the viability at 1 µM stood at 37.4% in the experiment with Colon cancer organoid [1]; 105% in the experiment with Colon cancer organoid [2]; 114% in the experiment on Colon cancer organoid [3]; 116% in the experiment with Colon cancer organoid [4]; 70.6% in the experiment on Colon cancer organoid [5].
In the case of `COc1ccc(CCc2nc3cc(-c4c(C)noc4C)ccc3n2C[C@H](C)N2CCOCC2)cc1Cl`, the viability at 10 µM worked out at 61.4% in the experiment with Colon cancer organoid [1]; 121% in the experiment on Colon cancer organoid [2]; 91.4% in the experiment with Colon cancer organoid [3]; 47.7% in the experiment on Colon cancer organoid [4]; 78.6% in the experiment on Colon cancer organoid [5].
Take `C[C@H](NC(=O)Nc1cc2[nH]ncc2c(CO)n1)c1ccccn1` [ERKi-NC]: the viability at 10 µM turned out to be 21.8% in the experiment on Colon cancer organoid [1]; 71.3% with Colon cancer organoid [2]; 94.9% in the experiment on Colon cancer organoid [3]; 40.9% in the experiment with Colon cancer organoid [4]; 62.2% with Colon cancer organoid [5].
Turning to `Cn1cnc2c(F)c(Nc3ccc(Br)cc3Cl)c(C(=O)NOCCO)cc21` [SELUMETINIB], the viability at 10 µM with Colon cancer organoid [1] turned out to be 22.1%; in the experiment on Colon cancer organoid [2], 51.6%; with Colon cancer organoid [3] it was 62.9%; in the experiment with Colon cancer organoid [4], 27.6%; in the experiment on Colon cancer organoid [5], 48.4%.
`C[C@@H]1CN(c2cc(-c3n[nH]c4ccc(OC5(C)CC5)cc34)ncn2)C[C@H](C)O1` [MLi-2]: the viability at 1 µM with Colon cancer organoid [1] stood at 27.4%; in the experiment on Colon cancer organoid [2], 113%; with Colon cancer organoid [3], 102%; in the experiment on Colon cancer organoid [4], 41%; in the experiment with Colon cancer organoid [5], 46.4%.
As to `CCn1cc(-c2cccc(C(F)(F)F)c2)c2sc(C(=N)NC3CCS(=O)(=O)CC3)cc2c1=O`, the viability at 10 µM was found to be 66.7% with Colon cancer organoid [1]; 132% with Colon cancer organoid [2]; 144% in the experiment with Colon cancer organoid [3]; 68.8% in the experiment on Colon cancer organoid [4]; 84.2% in the experiment with Colon cancer organoid [5].
Take `O=C(NCc1ncc(C(F)(F)F)cc1Cl)c1ccc2c(c1)C1(CCS(=O)(=O)CC1)[C@H](C1CC1)N2S(=O)(=O)c1ccc(F)cc1` [BAY-784]: the viability at 1 µM in the experiment with Colon cancer organoid [1] came out at 55.8%; in the experiment on Colon cancer organoid [2], 129%; in the experiment on Colon cancer organoid [3], 157%; in the experiment with Colon cancer organoid [4], 74.1%; in the experiment with Colon cancer organoid [5], 127%.
